Values after ≈ are worked out from the molar mass of the structure shown. Read-outs that look alike come from different tables or passages of the source.

In test [1] the test system is E. coli containing KPC-2. Put plainly: MIC by broth microdilution, E. coli containing KPC-2 (Ec KPC2 Iso). It is filed as cell-based. Conditions: Escherichia coli, read-out: Ec KPC2 Iso (MIC), E. coli containing KPC-2 (carbapenemase from Klebsiella pneumoniae). The method, boiled down:
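Host E. coli BW25113 pspB carrying multicopy pBAD18-kan plasmid with constitutive TEM-promoter KPC-2 expression (periplasmic signal sequence); broth microdilution per CLSI in cation-adjusted Mueller-Hinton broth, inoculum ~5×10^5 CFU/mL, compounds twofold serially diluted from DMSO masters (10% DMSO in dilution series added).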
(In broth dilution the organism is exposed to a series of concentrations in liquid medium.)

Test [2] concerns E. coli strain 25922. Put plainly: MIC by broth microdilution, E. coli strain 25922. It is filed as cell-based. The method, boiled down: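 CLSI broth microdilution in cation-adjusted Mueller-Hinton broth, inoculum about 5×10^5 CFU/mL, 10% DMSO from the diluted series, 20 h at 35-37° C. MIC is the lowest concentration preventing visible growth, read by eye and at 600 nm.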
Where [3] appears, read: Escherichia coli, 25922, E. coli strain 25922, read-out: Ec 25922 (MIC).

`CC(C)(O/N=C(\C(=O)N[C@@H]1C(=O)N(S(=O)(=O)O)[C@@H]1Cn1cc(CNC(=N)N)nn1)c1csc(N)n1)C(=O)O` [Example 45, 2-(((Z)-(1-(2-aminothiazol-4-yl)-2-(((2R,3S)-2-((4-(guanidinomethyl)-1H-1,2,3-triazol-1-yl)methyl)-4-oxo-1-sulfoazetidin-3-yl)amino)-2-oxoethylidene)amino)oxy)-2-methylpropanoic acid]: the MIC in test [1] amounted to 0.5 mg/L (≈ 0.872 µM); in test [2] (Escherichia coli, 25922, read-out: Ec 25922 (MIC)) it was 0.5 mg/L (≈ 0.872 µM).
Regarding `CC(C)(O/N=C(\C(=O)N[C@@H]1C(=O)N(S(=O)(=O)O)[C@@H]1Cn1cc(CO)nn1)c1csc(N)n1)C(=O)O` [Example 47, 2-(((Z)-(1-(2-aminothiazol-4-yl)-2-(((2R,3S)-2-((4-(hydroxymethyl)-1H-1,2,3-triazol-1-yl)methyl)-4-oxo-1-sulfoazetidin-3-yl)amino)-2-oxoethylidene)amino)oxy)-2-methylpropanoic acid], the MIC in test [1] is 5 mg/L (≈ 9.39 µM); in test [2] (setting [3]) it was 2 mg/L (≈ 3.76 µM).
For `Cc1c[n+](C)ccc1-c1cn(C[C@@H]2[C@H](NC(=O)/C(=N\OC(C)(C)C(=O)O)c3csc(N)n3)C(=O)N2S(=O)(=O)O)nn1` [Example 49, (2R,3S)-3-((Z)-2-(2-aminothiazol-4-yl)-2-(((2-carboxypropan-2-yl)oxy)imino)acetamido)-2-((4-(1,3-dimethylpyridin-1-ium-4-yl)-1H-1,2,3-triazol-1-yl)methyl)-4-oxoazetidine-1-sulfonate], the MIC in test [1] amounted to 16 mg/L; in test [2] (setting [3]), 2 mg/L.
For `CC(C)(O/N=C(\C(=O)N[C@@H]1C(=O)N(S(=O)(=O)O)[C@@H]1Cn1ccnn1)c1csc(N)n1)C(=O)O` [Example 50, 2-(((Z)-(2-(((2R,3S)-2-((1H-1,2,3-triazol-1-yl)methyl)-4-oxo-1-sulfoazetidin-3-yl)amino)-1-(2-aminothiazol-4-yl)-2-oxoethylidene)amino)oxy)-2-methylpropanoic acid] the same measures were 2.8 mg/L (≈ 5.57 µM) and 2 mg/L (≈ 3.98 µM).
For `CC(C)(O/N=C(\C(=O)N[C@@H]1C(=O)N(S(=O)(=O)O)[C@@H]1Cn1cc(C(=O)O)nn1)c1csc(N)n1)C(=O)O` [Example 51, 1-(((2R,3S)-3-((Z)-2-(2-aminothiazol-4-yl)-2-(((2-carboxypropan-2-yl)oxy)imino)acetamido)-4-oxo-1-sulfoazetidin-2-yl)methyl)-1H-1,2,3-triazole-4-carboxylic acid], the MIC in test [1] was 16 mg/L (≈ 29.3 µM); in test [2] (setting [3]), greater than 64 mg/L.
As to `CC(C)(O/N=C(\C(=O)N[C@@H]1C(=O)N(S(=O)(=O)O)[C@@H]1Cn1ncc(CN)n1)c1csc(N)n1)C(=O)O` [Example 52, 2-(((Z)-(2-(((2R,3S)-2-((4-(aminomethyl)-2H-1,2,3-triazol-2-yl)methyl)-4-oxo-1-sulfoazetidin-3-yl)amino)-1-(2-aminothiazol-4-yl)-2-oxoethylidene)amino)oxy)-2-methylpropanoic acid], the MIC in test [1] turned out to be 1 mg/L (≈ 1.88 µM); in test [2] (setting [3]), 0.5 mg/L (≈ 0.941 µM).
Regarding `CC(C)(O/N=C(\C(=O)N[C@@H]1C(=O)N(S(=O)(=O)O)[C@@H]1Cn1ncc(CNC(=N)N)n1)c1csc(N)n1)C(=O)O` [Example 53, 2-(((Z)-(1-(2-aminothiazol-4-yl)-2-(((2R,3S)-2-((4-(guanidinomethyl)-2H-1,2,3-triazol-2-yl)methyl)-4-oxo-1-sulfoazetidin-3-yl)amino)-2-oxoethylidene)amino)oxy)-2-methylpropanoic acid], the MIC in test [1] and in test [2] (setting [3]) was 1 mg/L (≈ 1.74 µM) in each case.
Consider `CC(C)(O/N=C(\C(=O)N[C@@H]1C(=O)N(S(=O)(=O)O)[C@@H]1Cn1nccn1)c1csc(N)n1)C(=O)O` [Example 54, 2-(((Z)-(2-(((2R,3S)-2-((2H-1,2,3-triazol-2-yl)methyl)-4-oxo-1-sulfoazetidin-3-yl)amino)-1-(2-aminothiazol-4-yl)-2-oxoethylidene)amino)oxy)-2-methylpropanoic acid], for which the figures for the MIC in test [1] and in test [2] (setting [3]) were 1 mg/L (≈ 1.99 µM) and 2 mg/L (≈ 3.98 µM), respectively.
As for `Cc1cnn(C[C@@H]2[C@H](NC(=O)/C(=N\OC(C)(C)C(=O)O)c3csc(N)n3)C(=O)N2S(=O)(=O)O)n1` [Example 55, 2-(((Z)-(1-(2-aminothiazol-4-yl)-2-(((2R,3S)-2-((4-methyl-2H-1,2,3-triazol-2-yl)methyl)-4-oxo-1-sulfoazetidin-3-yl)amino)-2-oxoethylidene)amino)oxy)-2-methylpropanoic acid], the MIC in test [1] was determined as 4 mg/L (≈ 7.74 µM); in test [2] (setting [3]) it was 16 mg/L (≈ 31 µM).
Turning to `CC(C)(O/N=C(\C(=O)N[C@@H]1C(=O)N(S(=O)(=O)O)[C@@H]1Cn1cnnc1)c1csc(N)n1)C(=O)O` [Example 56, 2-(((Z)-(2-(((2R,3S)-2-((4H-1,2,4-triazol-4-yl)methyl)-4-oxo-1-sulfoazetidin-3-yl)amino)-1-(2-aminothiazol-4-yl)-2-oxoethylidene)amino)oxy)-2-methylpropanoic acid], the MIC was found to be 16 mg/L (≈ 31.8 µM) in test [1] and 4 mg/L (≈ 7.96 µM) in test [2] (setting [3]).
Consider `CC(C)(O/N=C(\C(=O)N[C@@H]1C(=O)N(S(=O)(=O)O)[C@@H]1CN1C[C@@H](CN)OC1=O)c1csc(N)n1)C(=O)O` [Example 57, 2-(((Z)-(2-(((2R,3S)-2-(((R)-5-(aminomethyl)-2-oxooxazolidin-3-yl)methyl)-4-oxo-1-sulfoazetidin-3-yl)amino)-1-(2-aminothiazol-4-yl)-2-oxoethylidene)amino)oxy)-2-methylpropanoic acid], for which the MIC was 1 mg/L (≈ 1.82 µM) in test [1] and 0.5 mg/L (≈ 0.91 µM) in test [2] (setting [3]).
For the compound `CC(C)(O/N=C(\C(=O)N[C@@H]1C(=O)N(S(=O)(=O)O)[C@@H]1CN1C[C@H](CN)OC1=O)c1csc(N)n1)C(=O)O` [Example 58, 2-(((Z)-(2-(((2R,3S)-2-(((S)-5-(aminomethyl)-2-oxooxazolidin-3-yl)methyl)-4-oxo-1-sulfoazetidin-3-yl)amino)-1-(2-aminothiazol-4-yl)-2-oxoethylidene)amino)oxy)-2-methylpropanoic acid], the MIC is 1 mg/L (≈ 1.82 µM) in test [1] and 2 mg/L (≈ 3.64 µM) in test [2] (setting [3]).
In the case of `CC(C)(O/N=C(\C(=O)N[C@@H]1C(=O)N(S(=O)(=O)O)[C@@H]1CN1C[C@H](CNC(=N)N)OC1=O)c1csc(N)n1)C(=O)O` [Example 59, 2-(((Z)-(1-(2-aminothiazol-4-yl)-2-(((2R,3S)-2-(((S)-5-(guanidinomethyl)-2-oxooxazolidin-3-yl)methyl)-4-oxo-1-sulfoazetidin-3-yl)amino)-2-oxoethylidene)amino)oxy)-2-methylpropanoic acid], the MIC in test [1] and in test [2] (setting [3]) was 16 mg/L (≈ 27 µM) each time.
Turning to `Cc1ncn(C[C@@H]2[C@H](NC(=O)/C(=N\OC(C)(C)C(=O)O)c3csc(N)n3)C(=O)N2S(=O)(=O)O)n1` [Example 60, 2-(((Z)-(1-(2-aminothiazol-4-yl)-2-(((2R,3S)-2-((3-methyl-1H-1,2,4-triazol-1-yl)methyl)-4-oxo-1-sulfoazetidin-3-yl)amino)-2-oxoethylidene)amino)oxy)-2-methylpropanoic acid], the MIC in test [1] and in test [2] (setting [3]) was 8 mg/L (≈ 15.5 µM) throughout.
For `Cc1ncnn1C[C@@H]1[C@H](NC(=O)/C(=N\OC(C)(C)C(=O)O)c2csc(N)n2)C(=O)N1S(=O)(=O)O` [Example 61, 2-(((Z)-(1-(2-aminothiazol-4-yl)-2-(((2R,3S)-2-((5-methyl-1H-1,2,4-triazol-1-yl)methyl)-4-oxo-1-sulfoazetidin-3-yl)amino)-2-oxoethylidene)amino)oxy)-2-methylpropanoic acid], the MIC in test [1] amounted to 2 mg/L (≈ 3.87 µM); in test [2] (setting [3]), 8 mg/L (≈ 15.5 µM).
As for `CC(C)(O/N=C(\C(=O)N[C@@H]1C(=O)N(S(=O)(=O)O)[C@@H]1Cn1ncc(CNC=N)n1)c1csc(N)n1)C(=O)O` [Example 62, 2-(((Z)-(1-(2-aminothiazol-4-yl)-2-(((2R,3S)-2-((4-(formimidamidomethyl)-2H-1,2,3-triazol-2-yl)methyl)-4-oxo-1-sulfoazetidin-3-yl)amino)-2-oxoethylidene)amino)oxy)-2-methylpropanoic acid], the MIC in test [1] amounted to 2 mg/L (≈ 3.58 µM); in test [2] (setting [3]) it was 0.5 mg/L (≈ 0.895 µM).
For `CC(C)(O/N=C(\C(=O)N[C@@H]1C(=O)N(S(=O)(=O)O)[C@@H]1CN1C[C@@H](CO)OC1=O)c1csc(N)n1)C(=O)O` [Example 63, 2-(((Z)-(1-(2-aminothiazol-4-yl)-2-(((2R,3S)-2-(((S)-5-(hydroxymethyl)-2-oxooxazolidin-3-yl)methyl)-4-oxo-1-sulfoazetidin-3-yl)amino)-2-oxoethylidene)amino)oxy)-2-methylpropanoic acid] the same measures were 32 mg/L (≈ 58.1 µM) and 32 mg/L (≈ 58.1 µM).
Take `N=C(NC1CCNCC1)c1ccc(OC[C@H](O/N=C(\C(=O)N[C@@H]2C(=O)N(S(=O)(=O)O)[C@@H]2CN2CCOC2=O)c2csc(N)n2)C(=O)O)cc1` [Example 64, (S)-2-(((Z)-(1-(2-aminothiazol-4-yl)-2-oxo-2-(((3S,4R)-2-oxo-4-((2-oxooxazolidin-3-yl)methyl)-1-sulfoazetidin-3-yl)amino)ethylidene)amino)oxy)-3-(4-(N-(piperidin-4-yl)carbamimidoyl)phenoxy)propanoic acid]: the MIC in test [1] amounted to 0.25 mg/L (≈ 0.345 µM); in test [2] (setting [3]), 0.5 mg/L (≈ 0.691 µM).
For `CC(C)(O/N=C(\C(=O)N[C@@H]1C(=O)N(S(=O)(=O)O)[C@@H]1Cn1ncc(CNS(N)(=O)=O)n1)c1csc(N)n1)C(=O)O` [Example 65, 2-(((Z)-(1-(2-aminothiazol-4-yl)-2-oxo-2-(((3S,4R)-2-oxo-4-((4-((sulfamoylamino)methyl)-2H-1,2,3-triazol-2-yl)methyl)-1-sulfoazetidin-3-yl)amino)ethylidene)amino)oxy)-2-methylpropanoic acid], the MIC in test [1] and in test [2] (setting [3]) was 64 mg/L (≈ 105 µM) throughout.

A word on the MIC: it is the smallest concentration in the dilution series that meets the test's criterion for growth inhibition.

The values are drawn from patent US10369138B2, “Monobactam organic compounds for the treatment of bacterial infections” (Novartis AG, priority 2014, dated 2019).
